Experimental data as given in paper PMC5515969, “Effects of 31 FDA approved small-molecule kinase inhibitors on isolated rat liver mitochondria” (Archives of Toxicology, 2016).
Like-named read-outs stand apart in the source and are kept apart here.

Experiments:
[1] = tested on: isolated rat liver mitochondria; assay: Mitochondrial ROS production (CM-H2DCFDA); details: DMSO treated samples set as 1
[2] = tested on: isolated rat liver mitochondria; assay: Mitochondrial swelling (absorbance at 535 nm); assay type: biochemical; details: difference in signal between KI and DMSO treated samples at the end of experiments; for Swelling 5XCmax: key: 0 indicates that the drug had no effects (negative)
RCC IV = RCC IV activity in submitochondrial particles; assay type: biochemical, rat; design: key to RCC IV at 50XCmax / RCC IV at 100XCmax: activity relative to DMSO-treated controls (control set as 1 = 100%); details: 50XCmax, in %
Method in brief: (§1)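 Rat submitochondrial particles (1 mg/ml) were treated with test compounds for 15 min. RCC IV, like RCC III, was monitored at 550 nm every 10 s for 2 min, and RCC I/V at 340 nm each minute for 6 min. DMSO samples defined unit activity.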

[3] = cited from earlier work
RCC III = RCC III activity in submitochondrial particles; assay type: biochemical, rat; design: key to RCC III at 100XCmax: activity relative to DMSO-treated controls (control set as 1 = 100%); details: 100XCmax
Method in brief: as §1

[4] = tested on: isolated rat liver mitochondria; details: positive control alamethicin treated samples
[5] = tested on: isolated rat liver mitochondria; assay: Mitochondrial inner membrane potential (MMP), Rhodamine 123; assay type: biochemical; details: difference in signal between KI and DMSO treated samples at the end of experiments
Text: Fig. 3 KI effects on mitochondrial inner membrane potential (MMP). […] In a, c, data are means and standard derivations from three separate experiments. *p < 0.05 as compared to DMSO-treated samples at the end of experiments. In b, data are means of two independent experiments

[6] = tested on: isolated rat liver mitochondria; assay: Mitochondrial oxygen consumption (glutamate/malate or succinate driven, state 4 and state 3); assay type: biochemical; details: for Glutamate/malate driven respiration State 3 / Glutamate/malate driven respiration State 4 / Succinate-driven respiration State 3 / Succinate-driven respiration State 4: oxygen consumption, DMSO-treated = 1; for State 3 respiration driven by succinate at 10XCmax: key: 0 indicates that the drug had no effects (negative); for State 3 respiration driven by succinate at 1XCmax: key: 0 indicates that the drug had no effects (negative)
Method in brief: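 Oxygen uptake on glutamate/malate or on succinate defined state 4; ADP added 3 min later gave state 3. Mitochondria isolated from rat liver by differential centrifugation, adjusted to 1 mg/ml and pretreated 5 min with inhibitor (0.1% DMSO final). Values relative to DMSO control, set to 1.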

[7] = cited from earlier work; remark: listed apart in the source
[8] = human therapeutic Cmax at FDA recommended dosages, ref product labeling and drug approval packages at the official FDA website
[9] = 1XCmax, DMSO treated samples set as 1
[10] = 2.5XCmax, DMSO treated samples set as 1
[11] = 5XCmax, DMSO treated samples set as 1
[12] = 10XCmax, DMSO treated samples set as 1
[13] = 20XCmax, DMSO treated samples set as 1
[14] = 30XCmax, DMSO treated samples set as 1
[15] = 50XCmax, DMSO treated samples set as 1
[16] = 100XCmax, DMSO treated samples set as 1

CC[C@H](Nc1ncnc2[nH]cnc12)c1nc2cccc(F)c2c(=O)n1-c1ccccc1 [Idelalisib]
ROS measured by CM-H2DCFDA at 1XCmax [1]: 0
ROS measured by CM-H2DCFDA at 2.5XCmax [1]: 0
ROS measured by CM-H2DCFDA at 5XCmax [1]: 0
ROS measured by CM-H2DCFDA at 10XCmax [1]: 0
ROS measured by CM-H2DCFDA at 20XCmax [1]: 0
ROS measured by CM-H2DCFDA at 30XCmax [1]: 0
ROS measured by CM-H2DCFDA at 50XCmax [1]: 0
ROS measured by CM-H2DCFDA at 100XCmax [1]: 0
Swelling 1XCmax [2]: 0
Swelling 2.5XCmax [2]: 0
Swelling 5XCmax [2]: 0
Swelling 10XCmax [2]: 0
Swelling 20XCmax [2]: 0
Swelling 30XCmax [2]: 0
Swelling 50XCmax [2]: 0
Swelling 100XCmax [2]: 0
RCC IV at 50XCmax (RCC IV; DMSO treated samples set as 1): 0
Cmax [3, 8]: 4.64 µM
Cmax (ng or µg/ml) ([3]; human therapeutic maximal blood concentration, ref product labeling): 1.927 µg/mL
Cmax ([3]; read-out: Cmax at µM, human therapeutic maximal blood concentration, ref product labeling): 4.64 µM
RCC III at 100XCmax (RCC III): 0
Cytochrome c release 1XCmax [4]: 0
Cytochrome c release 2.5XCmax [4]: 0
Cytochrome c release 5XCmax [4]: 0
Cytochrome c release 10XCmax [4]: 0
Cytochrome c release 20XCmax [4]: 0
Cytochrome c release 30XCmax [4]: 0
Cytochrome c release 50XCmax [4]: 0
Cytochrome c release 100XCmax [4]: 0
MMP measured by Rhodamine 123 at 1XCmax [5]: 0
MMP measured by Rhodamine 123 at 2.5XCmax [5]: 0
MMP measured by Rhodamine 123 at 5XCmax [5]: 0
MMP measured by Rhodamine 123 at 10XCmax [5]: 0
MMP measured by Rhodamine 123 at 20XCmax [5]: 0
MMP measured by Rhodamine 123 at 30XCmax [5]: 0
MMP measured by Rhodamine 123 at 50XCmax [5]: 0
MMP measured by Rhodamine 123 at 100XCmax [5]: 0
State 3 respiration driven by succinate at 1XCmax [6, 9]: 0
State 4 respiration driven by succinate at 1XCmax [6, 9]: 0
State 3 respiration driven by succinate at 2.5XCmax [6, 10]: 0
State 4 respiration driven by succinate at 2.5XCmax [6, 10]: 0
State 3 respiration driven by succinate at 5XCmax [6, 11]: 0
State 4 respiration driven by succinate at 5XCmax [6, 11]: 0
State 3 respiration driven by succinate at 10XCmax [6, 12]: 0
State 4 respiration driven by succinate at 10XCmax [6, 12]: 0
State 3 respiration driven by succinate at 20XCmax [6, 13]: 0
State 4 respiration driven by succinate at 20XCmax [6, 13]: 0
State 3 respiration driven by succinate at 30XCmax [6, 14]: 0
State 4 respiration driven by succinate at 30XCmax [6, 14]: 0
Glutamate/malate driven respiration State 3 ([6]; 50-fold Cmax): 0.76 ± 0.04
Glutamate/malate driven respiration State 4 ([6]; 50-fold Cmax): 1.00 ± 0.08
Succinate-driven respiration State 3 ([6]; 50-fold Cmax): 0.83 ± 0.06
Succinate-driven respiration State 4 ([6]; 50-fold Cmax): 0.97 ± 0.04
State 3 respiration driven by glutamate/malate at 50XCmax [6, 15]: 0.76±0.04
State 3 respiration driven by succinate at 50XCmax [6, 15]: 0
State 4 respiration driven by succinate at 50XCmax [6, 15]: 0
Glutamate/malate driven respiration State 3 ([6]; 100-fold Cmax): 0.66 ± 0.03
Glutamate/malate driven respiration State 4 ([6]; 100-fold Cmax): 1.13 ± 0.05
Succinate-driven respiration State 3 ([6]; 100-fold Cmax): 0.65 ± 0.03
Succinate-driven respiration State 4 ([6]; 100-fold Cmax): 1.05 ± 0.01
State 3 respiration driven by glutamate/malate at 100XCmax [6, 16]: 0.66±0.03
State 3 respiration driven by succinate at 100XCmax [6, 16]: 0.65±0.03
State 4 respiration driven by succinate at 100XCmax [6, 16]: 0
lowest concentration significantly affecting mitochondrial oxygen consumption ([6]; tested at 1 to 100-fold Cmax): 50 fold Cmax

CCCS(=O)(=O)Nc1ccc(F)c(C(=O)c2c[nH]c3ncc(-c4ccc(Cl)cc4)cc23)c1F [Vemurafenib]
ROS measured by CM-H2DCFDA at 1XCmax [1]: 0
ROS measured by CM-H2DCFDA at 2.5XCmax [1]: 0
ROS measured by CM-H2DCFDA at 5XCmax [1]: 0
ROS measured by CM-H2DCFDA at 10XCmax [1]: 0
ROS measured by CM-H2DCFDA at 20XCmax [1]: 0
ROS measured by CM-H2DCFDA at 30XCmax [1]: 0
ROS measured by CM-H2DCFDA at 50XCmax [1]: 0
ROS measured by CM-H2DCFDA at 100XCmax [1]: 0
Swelling 1XCmax [2]: 0
Swelling 2.5XCmax [2]: 0
Swelling 5XCmax [2]: 0
Swelling 10XCmax [2]: 0
Swelling 20XCmax [2]: 0
Swelling 30XCmax [2]: 0
Swelling 50XCmax [2]: 0
Swelling 100XCmax [2]: 0
RCC IV at 50XCmax (RCC IV; relative to DMSO treated samples): 0
Cmax [3, 8]: 0.13 µM
Cytochrome c release 1XCmax [4]: 0
Cytochrome c release 2.5XCmax [4]: 0
Cytochrome c release 5XCmax [4]: 0
Cytochrome c release 10XCmax [4]: 0
Cytochrome c release 20XCmax [4]: 0
Cytochrome c release 30XCmax [4]: 0
Cytochrome c release 50XCmax [4]: 0
Cytochrome c release 100XCmax [4]: 0
DILI potential (based on labeling) ([7]; 1 = DILI positive, 0 = negative, ref product labeling): 1
Labeling for DILI ([7]; BBW: black box warning, W&P: Warnings and Precautions, ref product labeling): W&P: functional hepatic impairment
labeling for DILI ([7]; W&P warnings and precautions, BBW black box warnings, ref FDA product labeling): W&P: hepatic impairment/ALT monitoring
DILI potential (based on labeling) ([7]; ref FDA product labeling): 1
MMP measured by Rhodamine 123 at 1XCmax [5]: 0
MMP measured by Rhodamine 123 at 2.5XCmax [5]: 0
MMP measured by Rhodamine 123 at 5XCmax [5]: 0
MMP measured by Rhodamine 123 at 10XCmax [5]: 0
MMP measured by Rhodamine 123 at 20XCmax [5]: 0
MMP measured by Rhodamine 123 at 30XCmax [5]: 0
MMP measured by Rhodamine 123 at 50XCmax [5]: 0
MMP measured by Rhodamine 123 at 100XCmax [5]: 0
State 3 respiration driven by glutamate/malate at 1XCmax [6, 9]: 0
State 3 respiration driven by succinate at 1XCmax [6, 9]: 0
State 4 respiration driven by glutamate/malate at 1XCmax [6, 9]: 0
State 4 respiration driven by succinate at 1XCmax [6, 9]: 0
State 3 respiration driven by glutamate/malate at 2.5XCmax [6, 10]: 0
State 3 respiration driven by succinate at 2.5XCmax [6, 10]: 0
State 4 respiration driven by glutamate/malate at 2.5XCmax [6, 10]: 0
State 4 respiration driven by succinate at 2.5XCmax [6, 10]: 0
State 3 respiration driven by glutamate/malate at 5XCmax [6, 11]: 0
State 3 respiration driven by succinate at 5XCmax [6, 11]: 0
State 4 respiration driven by glutamate/malate at 5XCmax [6, 11]: 0
State 4 respiration driven by succinate at 5XCmax [6, 11]: 0
State 3 respiration driven by glutamate/malate at 10XCmax [6, 12]: 0
State 3 respiration driven by succinate at 10XCmax [6, 12]: 0
State 4 respiration driven by glutamate/malate at 10XCmax [6, 12]: 0
State 4 respiration driven by succinate at 10XCmax [6, 12]: 0
State 3 respiration driven by glutamate/malate at 20XCmax [6, 13]: 0
State 3 respiration driven by succinate at 20XCmax [6, 13]: 0
State 4 respiration driven by glutamate/malate at 20XCmax [6, 13]: 0
State 4 respiration driven by succinate at 20XCmax [6, 13]: 0
State 3 respiration driven by glutamate/malate at 30XCmax [6, 14]: 0
State 3 respiration driven by succinate at 30XCmax [6, 14]: 0
State 4 respiration driven by glutamate/malate at 30XCmax [6, 14]: 0
State 4 respiration driven by succinate at 30XCmax [6, 14]: 0
State 3 respiration driven by glutamate/malate at 50XCmax [6, 15]: 0
State 3 respiration driven by succinate at 50XCmax [6, 15]: 0
State 4 respiration driven by glutamate/malate at 50XCmax [6, 15]: 0
State 4 respiration driven by succinate at 50XCmax [6, 15]: 0
State 3 respiration driven by glutamate/malate at 100XCmax [6, 16]: 0
State 3 respiration driven by succinate at 100XCmax [6, 16]: 0
State 4 respiration driven by glutamate/malate at 100XCmax [6, 16]: 0
State 4 respiration driven by succinate at 100XCmax [6, 16]: 0
